Test system: ischemic ulcers
Assay: Case report: ischemic ulcers (peripheral vascular disease)
Type: in vivo, human
Settings: person, prior therapy before topical treatment
Text: A person presents with chronic peripheral vascular disease and ischemic ulcers over the medial aspect of the hallux.

## CC(=O)CCCCn1c(=O)c2c(ncn2C)n(C)c1=O [Trental]
  healing: failed to improve healing

Source: patent publication US10881640B2, “Topical pharmaceutical compositions for treatment of pilonidal sinus wounds” (S.L.A. PHARMA AG, priority 2002, dated 2021)
